Measured values as given in article PMC4072806, “Defining Immune Engagement Thresholds for In Vivo Control of Virus-Driven Lymphoproliferation” (PLoS Pathogens, 2014).
Where two headings read alike, the source gives them in different places. No end group written: not given here.

Columns and labels:
H2K^b = biological target: T1, H2K^b (Mus musculus, UniProt P01901); type: cell-based
T1 construct: […]; endogenous in cells; host or cells: RMA/S cells (TAP-deficient)
Description: H2K^b stabilization was determined with TAP-deficient RMA/S cells. These were incubated overnight at 26°C to promote the export of empty H2K^b complexes, then loaded with graded concentrations of OVA or APL peptides (Thermo Scientific) for 2 h at 26°C and subsequently transferred to 37°C for 2 h to destabilize empty MHC molecules. The cells were then washed twice, stained with anti-H2K^b (AF6-88.5.5.3, eBioscience), and analysed on a LSR Fortessa (BD Biosciences). Mean fluorescence intensities were determined with FlowJo (Tree Star). To measure the ex vivo stimulation of naïve OT-I T cells by OVA and APLs, CD8^+ T cells from the spleens of naïve OT-I mice were purified by negative selection (CD8^+ T cell isolation kit, Miltenyi Biotech); for equivalent peptide/MHC class I numbers, irradiated (7500 rads) RMA/S cells were loaded with different peptides at 26°C, then incubated at 37°C; and 5×10^4 OT-I T cells were cultured with 2.5×10^4 RMA/S cells for 72 h at 37°C. IFNγ levels in culture supernatants were measured by ELISA (DuoSet ELISA development kit, R&D Systems). The data were fitted to sigmoidal dose-response curves and EC50 values calculated using GraphPad Prism.

[1] = system: OT-I CTL (H2K^b-OVA-specific TcR of OT-I); assay: Functional avidity of OT-I CTL by IFNγ production (ELISA); type: cell-based, mouse; conditions: Figure 1C, naive OT-I CD8+ T cells with peptide-loaded irradiated RMA/S cells, 72 h 37°C, repeated in duplicates 4 times, read-out: OT-I sensitivity EC50
[2] = biological target: H2K^b (MHC class I, empty complexes on TAP-deficient RMA/S cells) (mouse (endogenous in RMA/S))
[3] = Figure 1B, TAP-deficient RMA/S cells, peptide 2 h 26°C then 2 h 37°C, anti-H2K^b FACS MFI, experiment repeated 3 times, read-out: EC50 (H2K^b stabilization)

| Compound | EC50 (H2K^b; [3]) | EC50 [1] | further results |
| --- | --- | --- | --- |
| SIIGFEKL [G4] | 34 nM | 3610 nM | – |
| SIIQFEKL [Q4] | 30 nM | 0.243 nM | – |
| E1 altered peptide ligand of OVA (EIINFEKL) | – | – | fold more peptide than OVA for equivalent H2K^b stabilization [2]: 6 fold |
| SIIRFEKL [R4] | 56 nM | – | – |
| SIINFEKA [A8] | 2470 nM | 10300 nM | – |
| CC[C@H](C)[C@H](NC(=O)[C@@H](NC(=O)[C@@H](N)CO)[C@@H](C)CC)C(=O)N[C@@H](CC(N)=O)C(=O)N[C@@H](Cc1ccccc1)C(=O)N[C@@H](CCC(=O)O)C(=O)N[C@@H](CCCCN)C(=O)N[C@@H](CC(C)C)C(=O)O [OVA, reference compound] | – | 0.0182 nM | EC50 (H2K^b; RMA/S cells, read-out: concentration giving 50% maximal H2K^b stabilization (EC50)): 40 nM |
| A8 altered peptide ligand of OVA (mutated anchor residue) | – | – | fold more peptide than E1 for equivalent H2K^b stabilization [2]: 10 fold |
| SIIVFEKL [V4] | 63 nM | 68.5 nM | – |
| OVA peptide, amino acid residues 257-264 of ovalbumin (SIINFEKL) | – | – | EC50 [2]: 40 nM |
| EIINFEKL [E1] | 235 nM | 7780 nM | – |
